Results as given in patent US20160130278A1 (TAISHO PHARMACEUTICAL CO., LTD, priority 2013, published 2016).

What follows are compounds tested against T1, human type 1 glycine transporter (GlyT1) (Homo sapiens, UniProt P48067) (assay: Glycine uptake inhibition experiment ([3H]glycine uptake)). Conditions: GlyT1.
T1 construct: T98G cells (glioma cells) expressing human type 1 glycine transporter (GlyT1) were used
T1 sequence (P48067 1-706): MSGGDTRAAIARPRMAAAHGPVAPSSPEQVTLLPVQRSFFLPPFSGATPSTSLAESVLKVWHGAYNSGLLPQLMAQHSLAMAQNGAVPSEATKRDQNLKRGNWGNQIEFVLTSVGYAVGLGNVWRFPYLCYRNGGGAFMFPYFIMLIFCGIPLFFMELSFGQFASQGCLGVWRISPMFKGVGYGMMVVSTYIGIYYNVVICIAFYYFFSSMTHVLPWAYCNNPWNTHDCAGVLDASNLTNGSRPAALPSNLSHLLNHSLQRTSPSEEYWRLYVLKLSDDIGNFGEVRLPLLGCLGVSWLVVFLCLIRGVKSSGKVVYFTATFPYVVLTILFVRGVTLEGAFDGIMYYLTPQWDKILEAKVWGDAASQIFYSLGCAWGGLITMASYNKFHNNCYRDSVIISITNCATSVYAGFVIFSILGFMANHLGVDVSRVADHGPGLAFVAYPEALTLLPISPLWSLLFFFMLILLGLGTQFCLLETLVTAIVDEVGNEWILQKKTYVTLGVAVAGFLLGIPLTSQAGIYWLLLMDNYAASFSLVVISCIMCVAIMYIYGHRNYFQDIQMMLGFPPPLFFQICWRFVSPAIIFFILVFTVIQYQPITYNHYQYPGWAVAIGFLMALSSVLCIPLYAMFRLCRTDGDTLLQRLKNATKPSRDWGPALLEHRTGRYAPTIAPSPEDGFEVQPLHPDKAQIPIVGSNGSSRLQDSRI
Format: cell-based
In short: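 T98G glioma cells expressing human GlyT1 were pretreated 10 min with compound in HEPES buffer pH 7.4 (0.2% BSA), then incubated with compound plus 250 nM final [3H]glycine for 15 min at room temperature. Intracellular radioactivity was counted after NaOH lysis; 10 μM ALX5407 defined non-specific uptake. IC50 came from 10^−9–10^−5 M curves.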

| IC50 [nM] | SMILES |
| --- | --- |
| 3300 | CCn1cc(-c2cccc(C(NC(=O)c3cccc(C)c3Cl)C3(O)CCC(F)(F)CC3)c2)cn1 (single isomer, unassigned) [Compound 151, 2-chloro-N-{(4,4-difluoro-1-hydroxycyclohexyl)[3-(1-ethyl-1H-pyrazol-4-yl)phenyl]methyl}-3-methylbenzamide] |
| 59 | O=C(NC(c1ccc(F)cc1Cl)C1(O)CCCC1)c1nccc(C(F)(F)F)c1Cl (single isomer, unassigned) [Compound 100, 3-chloro-N-[(2-chloro-4-fluorophenyl)(1-hydroxycyclopentyl)methyl]-4-(trifluoromethyl)pyridine-2-carboxamide] |
| 590 | O=C(NC(c1cccnc1Cl)[C@]1(O)CC[C@@H](F)CC1)c1ccnc(C(F)(F)F)c1Cl (single isomer, unassigned) [Compound 321, 3-chloro-N-[(2-chloropyridin-3-yl)(cis-4-fluoro-1-hydroxycyclohexyl)methyl]-2-(trifluoromethyl)pyridine-4-carboxamide] |
| 6100 | O=C(N[C@H](c1cccc(Br)c1)[C@]1(O)CC[C@@H](F)CC1)c1nccc(C(F)(F)F)c1Cl [Compound 109, N-[(R)-(3-bromophenyl)(cis-4-fluoro-1-hydroxycyclohexyl)methyl]-3-chloro-4-(trifluoromethyl)pyridine-2-carboxamide] |
| 180 | O=C(NC(c1cc(F)cc(Cl)c1)C1(O)CCCC1)c1nccc(C(F)(F)F)c1Cl (stereo not shown) [Compound 88, 3-chloro-N-[(3-chloro-5-fluroophenyl)(1-hydroxycyclopentyl)methyl]-4-(trifluoromethyl)pyridine-2-carboxamide] |
| 150 | O=C(NC(c1cccc(F)c1Cl)[C@]1(O)CC[C@@H](F)CC1)c1cc(C(F)(F)F)ncc1Cl (single isomer, unassigned) [Compound 280, 5-chloro-N-[(2-chloro-3-fluorophenyl)(cis-4-fluoro-1-hydroxycyclohexyl)methyl]-2-(trifluoromethyl)pyridine-4-carboxamide] |
| 880 | N#Cc1ccc(-c2cccc(C(NC(=O)c3cccc(C(F)(F)F)c3Cl)C3(O)CCCC3)c2)cc1 (stereo not shown) [Compound 5, 2-chloro-N-[(4′-cyanobiphenyl-3-yl)(1-hydroxycyclopentyl)methyl]-3-(trifluoromethyl)benzamide] |
| 77 | O=C(NC(c1cccc(Cl)n1)[C@]1(O)CC[C@@H](F)CC1)c1nccc(C(F)(F)F)c1Cl (single isomer, unassigned) [Compound 274, 3-chloro-N-[(6-chloropyridin-2-yl)(cis-4-fluoro-1-hydroxycyclohexyl)methyl]-4-(trifluoromethyl)pyridine-2-carboxamide] |
| 1400 | O=C(NC(c1cccc(Br)c1)C1(O)CCCCC1)c1nccc(C(F)(F)F)c1Cl (single isomer, unassigned) [Compound 43, N-[(3-bromophenyl)(1-hydroxycyclohexyl)methyl]-3-chloro-4-(trifluoromethyl)pyridine-2-carboxamide] |
| 1600 | O=C(NC(c1cccc(F)c1Cl)[C@]1(O)CC[C@@H](F)CC1)c1cccc2ccncc12 (single isomer, unassigned) [Compound 275, N-[(2-chloro-3-fluorophenyl)(cis-4-fluoro-1-hydroxycyclohexyl)methyl]isoquinoline-8-carboxamide] |
| 160 | O=C(NC(c1cccc(-n2cccn2)c1)C1(O)CCCC1)c1nccc(C(F)(F)F)c1Cl (stereo not shown) [Compound 80, 3-chloro-N-{(1-hydroxycyclopentyl)[3-(1H-pyrazol-1-yl)phenyl]methyl}-4-(trifluoromethyl)pyridine-2-carboxamide] |
| 77 | O=C(NC(c1cccc(Cl)n1)C1(O)CCC(F)(F)CC1)c1nccc(C(F)(F)F)c1Cl (single isomer, unassigned) [Compound 311, 3-chloro-N-[(6-chloropyridin-2-yl)(4,4-difluoro-1-hydroxycyclohexyl)methyl]-4-(trifluoromethyl)pyridine-2-carboxamide] |
| 2300 | O=C(NC(c1cc(Cl)ccc1F)[C@]1(O)CC[C@@H](F)CC1)c1cc(C(F)(F)F)cnc1Cl (single isomer, unassigned) [Compound 378, 2-chloro-N-[(5-chloro-2-fluroophenyl)(cis-4-fluoro-1-hydroxycyclohexyl)methyl]-5-(trifluoromethyl)pyridine-3-carboxamide] |
| 850 | O=C(NC(c1cccnc1Cl)C1(O)CCC(F)(F)CC1)c1ccnc(C(F)(F)F)c1Cl (single isomer, unassigned) [Compound 341, 3-chloro-N-[(2-chloropyridin-3-yl)(4,4-difluoro-1-hydroxycyclohexyl)methyl]-2-(trifluoromethyl)pyridine-4-carboxamide] |
| 360 | O=C(NC(c1cc(Cl)ccn1)C1(O)CCC(F)(F)CC1)c1ccnc(C(F)(F)F)c1Cl (single isomer, unassigned) [Compound 346, 3-chloro-N-[(4-chloropyridin-2-yl)(4,4-difluoro-1-hydroxycyclohexyl)methyl]-2-(trifluoromethyl)pyridine-4-carboxamide] |
| 130 | O=C(NC(c1cccc(F)c1Cl)C1(O)CCC(F)(F)CC1)c1ccnc(C(F)(F)F)c1Cl (single isomer, unassigned) [Compound 178, 3-chloro-N-[(2-chloro-3-fluorophenyl)(4,4-difluoro-1-hydroxycyclohexyl)methyl]-2-(trifluoromethyl)pyridine-4-carboxamide] |
| 920 | O=C(NC(c1cccc(CO)c1)C1(O)CCCC1)c1nccc(C(F)(F)F)c1Cl (stereo not shown) [Compound 104, 3-chloro-N-{(1-hydroxycyclopentyl)[3-(hydroxymethyl)phenyl]methyl}-4-(trifluoromethyl)pyridine-2-carboxamide] |
| 56 | O=C(NC(c1cc(Cl)ccn1)[C@]1(O)CC[C@@H](F)CC1)c1ccnc(C(F)(F)F)c1Cl (single isomer, unassigned) [Compound 330, 3-chloro-N-[(4-chloropyridin-2-yl)(cis-4-fluoro-1-hydroxycyclohexyl)methyl]-2-(trifluoromethyl)pyridine-4-carboxamide] |
| 550 | O=C(NC(c1cccc(Cl)n1)[C@]1(O)CC[C@@H](F)CC1)c1nccc2ccccc12 (single isomer, unassigned) [Compound 310, N-[(6-chloropyridin-2-yl)(cis-4-fluoro-1-hydroxycyclohexyl)methyl]isoquinoline-1-carboxamide] |
| 1100 | O=C(NC(c1cccc(Br)c1)C1(O)CCC(F)(F)CC1)c1nccc(C(F)(F)F)c1Cl (single isomer, unassigned) [Compound 89, N-[(3-bromophenyl)(4,4-difluoro-1-hydroxycyclohexyl)methyl]-3-chloro-4-(trifluoromethyl)pyridine-2-carboxamide] |
| 98 | O=C(NC(c1cccc(Cl)c1)[C@]1(O)CC[C@@H](F)CC1)c1nccc(C(F)(F)F)c1Cl (stereo partly drawn) [Compound 153, 3-chloro-N-[(3-chlorophenyl)(cis-4-fluoro-1-hydroxycyclohexyl)methyl]-4-(trifluoromethyl)pyridine-2-carboxamide] |
| 1200 | O=C(NC(c1cccc(F)c1Cl)[C@]1(O)CC[C@@H](F)CC1)c1cnc(Cl)cc1-n1nccn1 (single isomer, unassigned) [Compound 369, 6-chloro-N-[(2-chloro-3-fluorophenyl)(cis-4-fluoro-1-hydroxycyclohexyl)methyl]-4-(2H-1,2,3-triazol-2-yl)pyridine-3-carboxamide] |
